Reference: the supplement of paper PMC10307832

Tests used:
[1] = compound: COC1=CC=C(C=C1)CN2C=CC3=C2C=C(C=C3)C(=O)NO; assay: relative viability (nuclei count vs DMSO), 5 days (fraction); higher = more cells survive
Procedure, shortened: (§1)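 Vehicle-anchored 1536-well plates of lung cancer cell lines, held overnight at 37 °C, were pinned with five library-drug doses (not always all listed) spaced by √10. No medium change followed over the next 5 days, after which the cells were fixed, permeabilised and Hoechst-stained together and imaged at 4×. Nuclei were counted with MetaXpress, and viability is treated-well nuclei over vehicle-well nuclei, taken as a median across plates. Plates passed with control CV below 25% and at least one doubling.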

[2] = compound: C[C@]1(c2nc3c(C(N)=O)cccc3[nH]2)CCCN1 [Veliparib]; assay: as above
Procedure, shortened: as §1

Cell Line | relative viability ([1]; 0.08 µM) | relative viability ([1]; 0.253 µM) | relative viability ([1]; 0.8 µM) | relative viability ([1]; 2.53 µM) | relative viability ([1]; 8 µM) | relative viability ([2]; 0.02 µM) | relative viability ([2]; 0.06325 µM) | relative viability ([2]; 0.2 µM) | relative viability ([2]; 0.6325 µM) | relative viability ([2]; 2 µM)
201T | 1.02 | 0.987 | 1.05 | 0.993 | 0.942 | 0.901 | 0.926 | 0.959 | 1.11 | 1.01
A549 | 0.905 | 1.01 | 0.953 | 0.986 | 0.895 | 1 | 0.957 | 0.962 | 0.9 | 0.989
A-427 | – | 0.98 | 1.01 | 0.952 | 0.806 | 0.781 | 0.995 | 0.943 | 0.939 | 0.841
ABC-1 | – | 0.941 | 0.845 | 0.94 | 0.703 | – | 0.842 | 0.925 | 0.841 | 0.958
BEN | 1.03 | 0.986 | 0.936 | 0.976 | 0.856 | 0.833 | 0.873 | 0.987 | 0.86 | 0.87
CAL-12T | 1.02 | 0.889 | 1.04 | 1.05 | 0.891 | 0.918 | 0.926 | 0.981 | 0.9 | 1.02
COR-L23 | 0.874 | 0.992 | 1 | 1.01 | 0.933 | 0.998 | 0.872 | 0.924 | 0.952 | 1.03
COR-L 105 | 0.679 | 0.928 | 0.936 | 0.799 | 0.565 | 0.843 | 0.794 | 0.895 | 0.835 | 1.08
Calu-6 | 0.825 | 1.01 | 1.03 | 0.998 | 0.977 | 1 | 0.968 | 0.935 | 0.905 | 1
ChaGo-K-1 | – | 1.04 | 1.01 | 1 | 0.834 | 0.842 | 0.978 | 0.966 | 0.965 | 0.775
EBC-1 | 0.71 | 0.931 | 1.04 | 0.987 | 0.923 | 1.05 | 0.93 | 0.983 | 0.915 | 1
EKVX | 0.782 | 1.02 | 0.991 | 1.05 | 0.957 | 0.744 | 0.93 | 0.94 | 1 | 0.972
EMC-BAC-2 | 0.88 | – | 1.08 | 0.979 | 0.873 | 1.01 | 0.786 | 1.09 | 1.11 | 0.965
EPLC-272H | 0.753 | 0.871 | 1 | 0.974 | 0.766 | – | 0.855 | 1.02 | 1.01 | 0.938
H3255 | 0.992 | 0.957 | 0.948 | 0.968 | 0.842 | 0.919 | 0.92 | 0.962 | 0.951 | 0.992
HARA | – | 1.02 | 1.08 | 0.89 | 0.884 | 0.858 | 0.939 | 0.955 | 0.979 | 0.915
HCC-15 | 0.883 | 0.965 | 1.11 | 1.01 | 0.935 | 0.89 | 0.952 | 1.04 | 0.985 | 1.05
HCC-44 | 0.916 | 0.923 | 1.03 | 1.05 | 1 | 0.971 | 0.798 | 0.958 | 1.01 | 0.94

Cell Line | relative viability ([1]; 0.08 µM) | relative viability ([1]; 0.253 µM) | relative viability ([1]; 0.8 µM) | relative viability ([1]; 2.53 µM) | relative viability ([1]; 8 µM) | relative viability ([2]; 0.02 µM) | relative viability ([2]; 0.06325 µM) | relative viability ([2]; 0.2 µM) | relative viability ([2]; 0.6325 µM) | relative viability ([2]; 2 µM)
HCC-78 | 0.803 | 0.876 | 1.01 | 1.02 | 0.917 | 0.987 | 0.829 | 0.949 | 0.828 | 0.888
HCC-366 | 0.791 | 0.993 | 0.973 | 0.964 | 1.01 | 1.03 | 0.992 | 1 | 1.01 | 1.03
HCC-827 | 1.06 | 0.935 | 0.997 | 1.03 | 0.97 | 0.986 | 1.03 | 1 | 0.977 | 1.07
HOP-62 | 0.865 | 1.01 | 0.992 | 1.03 | 0.958 | 0.934 | 0.909 | 0.963 | 0.976 | 1.02
IA-LM | 0.91 | 0.949 | 1.03 | 1.08 | 0.868 | 0.918 | 0.831 | 0.952 | 0.896 | 0.886
LC-2-ad | 0.937 | 0.977 | 1.04 | 0.976 | 0.963 | 0.608 | 0.944 | 0.977 | 0.941 | 0.867
LCLC-97TM1 | – | 1.03 | 1.02 | 0.942 | 0.887 | 0.903 | 0.925 | 0.897 | 0.912 | 0.993
LCLC-103H | 1.03 | 1.01 | 1.01 | 0.984 | 0.973 | 1 | 0.893 | 0.999 | 1.01 | 0.969
LK-2 | – | 1.03 | 1.07 | 0.992 | 0.949 | 0.861 | 1.06 | 1.08 | 0.916 | 0.964
LOU-NH91 | 0.717 | 0.95 | 1 | 0.991 | 0.944 | 0.941 | 0.893 | 1.01 | 0.931 | 0.992
LU99A | – | 0.932 | 1.11 | 0.916 | 0.932 | 0.984 | 0.902 | 0.771 | 0.863 | 0.994
LXF-289 | – | 1.01 | 1 | 0.992 | 0.992 | 0.996 | 0.992 | 1.03 | 0.941 | 1
NCI-H23 | 0.776 | 1.06 | 1.09 | 0.968 | 0.721 | 0.89 | 0.77 | 0.948 | 0.951 | 0.96
NCI-H322M | – | 0.948 | 1.06 | 0.925 | 0.931 | – | 0.872 | 1.07 | 0.963 | 0.903
NCI-H358 | – | 0.945 | 1.09 | 0.976 | 0.746 | 0.762 | 0.856 | 0.924 | 0.941 | 0.94
NCI-H441 | 0.997 | 1.03 | 1.18 | 1.04 | 0.867 | 1.09 | 0.967 | 0.982 | 0.772 | 0.884
NCI-H460 | 0.902 | 1 | 0.994 | 0.992 | 0.968 | 0.93 | 0.952 | 0.967 | 0.931 | 0.964
